# Measured values from patent US7244431B2, “Allergy vaccines and their preparation” (priority 2000, dated 2007).
# Key:
# [1] = tested on: birch pollen allergic patients; assay: Skin prick testing of allergic patients; format: in vivo, human
# Protocol: SPTs were performed on the individuals forearms as described ([…]. et al. (1997) J. Clin Invest. 99, 1673-168; Dreborg S: (1989) J. Am. Acad. DerMatol. 21, 820-821). […] In addition standardized skin prick solutions (birch pollen extract and histamine) (Allergopharma, Reinbek, Germany) were tested. Reactions were recorded 20 minutes after SPT by photography and by transferring the ballpoint pen-surrounded wheal area with a scotch tape to paper.
# [2] = tested on: IgE antibodies in sera from birch pollen allergic patients; assay: ELISA detection of peptide- and rBet v 1-specific IgE antibodies; format: binding, human
# Protocol: Birch pollen allergic patients suffering from allergic rhinoconjunctivitis and/or asthma to birch pollen and related allergens were selected according to case history indicative for seasonal birch pollinosis and characterized by skin prick testing with birch pollen extract and serological CAP RAST (Pharmacia Diagnostics, Uppsala, Sweden) testing. Total IgE levels in the sera were determined by CAP RIST measurements (Pharmacia). […] Sera from 60 birch pollen allergic patients and a non-atopic individual were used for IgE competition studies. The birch pollen allergic patients group consisted of 25 males and 35 females with a mean age of 37 years (ranging from 19-60 years) (Table 2).
# Subsequently, plates were incubated with 1:3 diluted sera from 60 birch pollen allergic patients and from a non-atopic individual overnight at 4° C. Bound IgE antibodies were detected with a 1:1000 diluted alkaline-phosphatase-coupled mouse monoclonal anti-human IgE antibody (Pharmingen, San Diego, Calif.).
compound,measurement,setting,value
"NCCc1c[nH]cn1 [histamine, reference compound]",mean wheal diameter,"[1]; individual 1, standardized skin prick solution",5 mm
same,mean wheal diameter,"[1]; individual 2, standardized skin prick solution",6 mm
same,mean wheal diameter,"[1]; individual 3, standardized skin prick solution",7 mm
same,mean wheal diameter,"[1]; individual 4, standardized skin prick solution",5 mm
same,mean wheal diameter,"[1]; individual 5, standardized skin prick solution",5.5 mm
same,mean wheal diameter,"[1]; individual 6 (without birch pollen allergy), standardized skin prick solution",4 mm
same,immediate skin reaction,[1]; standardized skin prick solutions,All individuals reacted
"CGPGTIKKISFPEGFPFKYVKDRVDEVDHTN [Peptide P3, Bet v 1-derived synthetic peptide, position aa 50-79, one cysteine added]",mean wheal diameter,"[1]; individual 1, 100 μg/ml",0 mm
same,mean wheal diameter,"[1]; individual 2, 100 μg/ml",0 mm
same,mean wheal diameter,"[1]; individual 3, 100 μg/ml",0 mm
same,mean wheal diameter,"[1]; individual 4, 100 μg/ml",0 mm
same,mean wheal diameter,"[1]; individual 5, 100 μg/ml",0 mm
same,mean wheal diameter,"[1]; individual 6 (allergic, without birch pollen allergy), 100 μg/ml",0 mm
same,IgE (OD),"[2]; serum of NHS, non-allergic control individual",— (Dashes indicate reactivities below the cut-off level (OD=0.050))
same,IgE (OD),[2]; serum of patient 1,— (Dashes indicate reactivities below the cut-off level (OD=0.050))
same,IgE (OD),[2]; serum of patient 2,— (Dashes indicate reactivities below the cut-off level (OD=0.050))
same,IgE (OD),[2]; serum of patient 3,— (Dashes indicate reactivities below the cut-off level (OD=0.050))
same,IgE (OD),[2]; serum of patient 4,— (Dashes indicate reactivities below the cut-off level (OD=0.050))
same,IgE (OD),[2]; serum of patient 5,— (Dashes indicate reactivities below the cut-off level (OD=0.050))
same,IgE (OD),[2]; serum of patient 6,— (Dashes indicate reactivities below the cut-off level (OD=0.050))
same,IgE (OD),[2]; serum of patient 7,— (Dashes indicate reactivities below the cut-off level (OD=0.050))
same,IgE (OD),[2]; serum of patient 8,— (Dashes indicate reactivities below the cut-off level (OD=0.050))
same,IgE (OD),[2]; serum of patient 9,— (Dashes indicate reactivities below the cut-off level (OD=0.050))
same,IgE (OD),[2]; serum of patient 10,— (Dashes indicate reactivities below the cut-off level (OD=0.050))
same,IgE (OD),[2]; serum of patient 11,— (Dashes indicate reactivities below the cut-off level (OD=0.050))
same,IgE (OD),[2]; serum of patient 12,— (Dashes indicate reactivities below the cut-off level (OD=0.050))
same,IgE (OD),[2]; serum of patient 13,— (Dashes indicate reactivities below the cut-off level (OD=0.050))
same,IgE (OD),[2]; serum of patient 14,— (Dashes indicate reactivities below the cut-off level (OD=0.050))
same,IgE (OD),[2]; serum of patient 15,— (Dashes indicate reactivities below the cut-off level (OD=0.050))
same,IgE (OD),[2]; serum of patient 16,— (Dashes indicate reactivities below the cut-off level (OD=0.050))
same,IgE (OD),[2]; serum of patient 17,— (Dashes indicate reactivities below the cut-off level (OD=0.050))
same,IgE (OD),[2]; serum of patient 18,— (Dashes indicate reactivities below the cut-off level (OD=0.050))
same,IgE (OD),[2]; serum of patient 19,— (Dashes indicate reactivities below the cut-off level (OD=0.050))
same,IgE (OD),[2]; serum of patient 20,— (Dashes indicate reactivities below the cut-off level (OD=0.050))
same,IgE (OD),[2]; serum of patient 21,— (Dashes indicate reactivities below the cut-off level (OD=0.050))
same,IgE (OD),[2]; serum of patient 22,— (Dashes indicate reactivities below the cut-off level (OD=0.050))
same,IgE (OD),[2]; serum of patient 23,— (Dashes indicate reactivities below the cut-off level (OD=0.050))
same,IgE (OD),[2]; serum of patient 24,— (Dashes indicate reactivities below the cut-off level (OD=0.050))
same,IgE (OD),[2]; serum of patient 25,— (Dashes indicate reactivities below the cut-off level (OD=0.050))
same,IgE (OD),[2]; serum of patient 26,— (Dashes indicate reactivities below the cut-off level (OD=0.050))
same,IgE (OD),[2]; serum of patient 27,— (Dashes indicate reactivities below the cut-off level (OD=0.050))
same,IgE (OD),[2]; serum of patient 28,— (Dashes indicate reactivities below the cut-off level (OD=0.050))
same,IgE (OD),[2]; serum of patient 29,— (Dashes indicate reactivities below the cut-off level (OD=0.050))
same,IgE (OD),[2]; serum of patient 30,— (Dashes indicate reactivities below the cut-off level (OD=0.050))
same,IgE (OD),[2]; serum of patient 31,— (Dashes indicate reactivities below the cut-off level (OD=0.050))
same,IgE (OD),[2]; serum of patient 32,— (Dashes indicate reactivities below the cut-off level (OD=0.050))
same,IgE (OD),[2]; serum of patient 33,— (Dashes indicate reactivities below the cut-off level (OD=0.050))
same,IgE (OD),[2]; serum of patient 34,— (Dashes indicate reactivities below the cut-off level (OD=0.050))
same,IgE (OD),[2]; serum of patient 35,— (Dashes indicate reactivities below the cut-off level (OD=0.050))
same,IgE (OD),[2]; serum of patient 36,— (Dashes indicate reactivities below the cut-off level (OD=0.050))
same,IgE (OD),[2]; serum of patient 37,— (Dashes indicate reactivities below the cut-off level (OD=0.050))
same,IgE (OD),[2]; serum of patient 38,— (Dashes indicate reactivities below the cut-off level (OD=0.050))
same,IgE (OD),[2]; serum of patient 39,— (Dashes indicate reactivities below the cut-off level (OD=0.050))
same,IgE (OD),[2]; serum of patient 40,— (Dashes indicate reactivities below the cut-off level (OD=0.050))
same,IgE (OD),[2]; serum of patient 41,— (Dashes indicate reactivities below the cut-off level (OD=0.050))
same,IgE (OD),[2]; serum of patient 42,— (Dashes indicate reactivities below the cut-off level (OD=0.050))
same,IgE (OD),[2]; serum of patient 43,— (Dashes indicate reactivities below the cut-off level (OD=0.050))
same,IgE (OD),[2]; serum of patient 44,— (Dashes indicate reactivities below the cut-off level (OD=0.050))
same,IgE (OD),[2]; serum of patient 45,— (Dashes indicate reactivities below the cut-off level (OD=0.050))
same,IgE (OD),[2]; serum of patient 46,— (Dashes indicate reactivities below the cut-off level (OD=0.050))
same,IgE (OD),[2]; serum of patient 47,— (Dashes indicate reactivities below the cut-off level (OD=0.050))
same,IgE (OD),[2]; serum of patient 48,— (Dashes indicate reactivities below the cut-off level (OD=0.050))
same,IgE (OD),[2]; serum of patient 49,— (Dashes indicate reactivities below the cut-off level (OD=0.050))
same,IgE (OD),[2]; serum of patient 50,— (Dashes indicate reactivities below the cut-off level (OD=0.050))
same,IgE (OD),[2]; serum of patient 51,— (Dashes indicate reactivities below the cut-off level (OD=0.050))
same,IgE (OD),[2]; serum of patient 52,— (Dashes indicate reactivities below the cut-off level (OD=0.050))
same,IgE (OD),[2]; serum of patient 53,— (Dashes indicate reactivities below the cut-off level (OD=0.050))
same,IgE (OD),[2]; serum of patient 54,— (Dashes indicate reactivities below the cut-off level (OD=0.050))
same,IgE (OD),[2]; serum of patient 55,— (Dashes indicate reactivities below the cut-off level (OD=0.050))
same,IgE (OD),[2]; serum of patient 56,— (Dashes indicate reactivities below the cut-off level (OD=0.050))
same,IgE (OD),[2]; serum of patient 57,— (Dashes indicate reactivities below the cut-off level (OD=0.050))
same,IgE (OD),[2]; serum of patient 58,— (Dashes indicate reactivities below the cut-off level (OD=0.050))
same,IgE (OD),[2]; serum of patient 59,— (Dashes indicate reactivities below the cut-off level (OD=0.050))
same,IgE (OD),[2]; serum of patient 60,— (Dashes indicate reactivities below the cut-off level (OD=0.050))
